The target in assay [1] is isolated recombinant JAK1 kinase domain (Homo sapiens (Human), UniProt P23458). Put plainly: JAK1 enzyme assay (Caliper LabChip, peptide phosphorylation). The following applies: isolated recombinant JAK1 kinase domain, 25 μM ATP. It counts as biochemical.
Assay [2] deals with isolated recombinant JAK2 kinase domain (Homo sapiens (Human), UniProt O60674). Briefly: JAK2 enzyme assay (Caliper LabChip, peptide phosphorylation). It counts as biochemical. The conditions noted are these: 25 μM ATP.
Chain of isolated recombinant JAK2 kinase domain (O60674 849-1124): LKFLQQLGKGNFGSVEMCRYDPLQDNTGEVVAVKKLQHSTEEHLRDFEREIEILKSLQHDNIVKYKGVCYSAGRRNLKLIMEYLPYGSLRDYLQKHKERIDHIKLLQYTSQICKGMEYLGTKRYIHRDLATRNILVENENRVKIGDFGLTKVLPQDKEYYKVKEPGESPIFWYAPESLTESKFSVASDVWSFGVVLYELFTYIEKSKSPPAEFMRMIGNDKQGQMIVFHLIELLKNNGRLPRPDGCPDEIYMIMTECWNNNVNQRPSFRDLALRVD
The test system of assay [3] is JAK1-dependent STAT6 phosphorylation downstream of IL-13 stimulation in TF-1 human erythroleukemia cells. Put plainly: JAK1 pathway assay in TF-1 cells (IL-13-pSTAT6, MSD). The following applies: Homo sapiens, TF-1, TF-1 cells, read-out: IL13-pSTAT6 EC50_TF-1. The class given is cell-based. In outline: (§1)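 BEAS-2B: complete growth medium, compound 1 hr at 37° C. TF-1: GM-CSF-starved overnight, serum-free OptiMEM, compound 30 min.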

Assay [4] has as its system JAK1-dependent STAT6 phosphorylation downstream of IL-13 stimulation in BEAS-2B human bronchial epithelial cells. Briefly: JAK1 pathway assay in BEAS-2B cells (IL-13-pSTAT6, MSD). The class given is cell-based. The following applies: read-out: IL13-pSTAT6 EC50 (uM)_BEAS-2B. In outline: as §1

Chain of isolated recombinant JAK1 kinase domain (P23458 875-1153): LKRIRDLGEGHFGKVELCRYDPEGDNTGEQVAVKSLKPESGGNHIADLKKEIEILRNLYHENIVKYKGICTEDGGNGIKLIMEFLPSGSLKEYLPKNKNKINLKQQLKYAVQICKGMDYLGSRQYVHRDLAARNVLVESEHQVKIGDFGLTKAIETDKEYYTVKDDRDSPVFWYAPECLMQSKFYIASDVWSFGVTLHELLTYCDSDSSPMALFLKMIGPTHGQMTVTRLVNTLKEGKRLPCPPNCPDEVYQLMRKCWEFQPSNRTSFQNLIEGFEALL

As usually defined, the Ki is the dissociation constant of the complex between target and ligand, obtained from inhibition or displacement. For the molecule `CNC(=O)CCCN1CCC(n2cc(NC(=O)c3c(N)nn4cccnc34)c(-c3cc(Cl)ccc3OC(F)F)n2)CC1` [Example 149, 2-amino-N-[3-[5-chloro-2-(difluoromethoxy)phenyl]-1-[1-[4-(methylamino)-4-oxo-butyl]-4-piperidyl]pyrazol-4-yl]pyrazolo[1,5-a]pyrimidine-3-carboxamide], the Ki in assay [1] came out at 0.81 nM; in assay [2], 0.2 nM. The EC50 in assay [3] is 8.3 nM; in assay [4], 0.0198 µM.

Turning to `CN(CCC#N)C1CCN(c2nc(-c3cc(Cl)ccc3OC(F)F)c(NC(=O)c3cnn4cccnc34)s2)CC1` [Example 189, Pyrazolo[1,5-a]pyrimidine-3-carboxylic acid (4-(5-chloro-2-difluoromethoxy-phenyl)-2-{4-[(2-cyano-ethyl)-methyl-amino]-piperidin-1-yl}-thiazol-5-yl)-amide], the inhibitory constant (Ki) is 2.59 nM in assay [1] and 1.61 nM in assay [2]. In addition, the EC50 in assay [3] was 5.3 nM; in assay [4], 0.02 µM.

Consider `CN(C)CC1CCN(c2nc(-c3cc(Cl)ccc3OC(F)F)c(NC(=O)c3cnn4cccnc34)s2)CC1` [Example 190, N-[4-[5-chloro-2-(difluoromethoxy)phenyl]-2-[4-[(dimethylamino)methyl]-1-piperidyl]thiazol-5-yl]pyrazolo[1,5-a]pyrimidine-3-carboxamide], for which the Ki was found to be 2.69 nM in assay [1] and 2.02 nM in assay [2]. For the same molecule, the results for the EC50 in assay [3] and in assay [4] were 14.6 nM and 0.0098 µM, respectively.

Take `CN(CC1(C)COC1)C1CCN(c2nc(-c3cc(Cl)ccc3OC(F)F)c(NC(=O)c3cnn4cccnc34)s2)CC1` [Example 200, N-[4-[5-chloro-2-(difluoromethoxy)phenyl]-2-[4-[methyl-[(3-methyloxetan-3-yl)methyl]amino]-1-piperidyl]thiazol-5-yl]pyrazolo[1,5-a]pyrimidine-3-carboxamide]: the Ki was determined as 1.24 nM in assay [1] and 1.07 nM in assay [2]. In addition, the EC50 in assay [3] amounted to 5.9 nM; in assay [4] it was 0.0254 µM.

As to `CN(CC1(C#N)CCCCC1)C1CCN(C(=O)C2CCN(c3nc(-c4cc(Cl)ccc4OC(F)F)c(NC(=O)c4cnn5cccnc45)s3)CC2)CC1` [Example 204, N-[4-[5-chloro-2-(difluoromethoxy)phenyl]-2-[4-[4-[(1-cyanocyclohexyl)methyl-methyl-amino]piperidine-1-carbonyl]-1-piperidyl]thiazol-5-yl]pyrazolo[1,5-a]pyrimidine-3-carboxamide], the values for the inhibitory constant (Ki) in assay [1] and in assay [2] were 2 nM and 1.41 nM, respectively. Moreover, the EC50 was found to be 7.9 nM in assay [3] and 0.172 µM in assay [4].

Consider `CC(C)CN1CCC2(CCN(C(=O)Cn3cc(NC(=O)c4cnn5cccnc45)c(-c4cc(Cl)ccc4OC(F)F)n3)CC2)C1` [Example 225, N-[3-[5-chloro-2-(difluoromethoxy)phenyl]-1-[2-(2-isobutyl-2,8-diazaspiro[4.5]decan-8-yl)-2-oxo-ethyl]pyrazol-4-yl]pyrazolo[1,5-a]pyrimidine-3-carboxamide], for which the inhibitory constant (Ki) stood at 0.39 nM in assay [1] and 1.29 nM in assay [2]. The figures for the EC50 in assay [3] and in assay [4] were 5 nM and 0.0423 µM, respectively.

As to `CN1CCN(C(=O)Cn2cc(NC(=O)c3cnn4cccnc34)c(-c3cc(Cl)ccc3OC(F)F)n2)CC1` [Example 227, Pyrazolo[1,5-a]pyrimidine-3-carboxylic acid {3-(5-chloro-2-difluoromethoxyphenyl)-1-[2-(4-methylpiperazin-1-yl)-2-oxoethyl]-1H-pyrazol-4-yl}amide], the Ki in assay [1] amounted to 0.55 nM; in assay [2], 0.93 nM. In addition, the EC50 in assay [3] is 3.6 nM; in assay [4], 0.0271 µM.

Regarding `O=C(Nc1cn(CC(=O)N2CCN(CCO)CC2)nc1-c1cc(Cl)ccc1OC(F)F)c1cnn2cccnc12` [Example 228, N-[3-[5-chloro-2-(difluoromethoxy)phenyl]-1-[2-[4-(2-hydroxyethyl)piperazin-1-yl]-2-oxo-ethyl]pyrazol-4-yl]pyrazolo[1,5-a]pyrimidine-3-carboxamide], the Ki in assay [1] was determined as 0.47 nM; in assay [2] it was 0.89 nM. The EC50 in assay [3] is 11.1 nM; in assay [4] it was 0.0655 µM.

As to `CN1CCN(C(=O)Cn2cc(NC(=O)c3cnn4cccnc34)c(-c3cc(Cl)ccc3OC(F)F)n2)C[C@H]1CO` [Example 235, N-[3-[5-chloro-2-(difluoromethoxy)phenyl]-1-[2-[(3S)-3-(hydroxymethyl)-4-methyl-piperazin-1-yl]-2-oxo-ethyl]pyrazol-4-yl]pyrazolo[1,5-a]pyrimidine-3-carboxamide], the inhibitory constant (Ki) in assay [1] worked out at 0.58 nM; in assay [2] it was 1.08 nM. For the same molecule, the EC50 in assay [3] came out at 21.3 nM; in assay [4], 0.114 µM.

Take `O=C(Nc1cn(CC(=O)N2CCC(CO)CC2)nc1-c1cc(Cl)ccc1OC(F)F)c1cnn2cccnc12` [Example 274, N-[3-[5-chloro-2-(difluoromethoxy)phenyl]-1-[2-[4-(hydroxymethyl)-1-piperidyl]-2-oxo-ethyl]pyrazol-4-yl]pyrazolo[1,5-a]pyrimidine-3-carboxamide]: the figures for the Ki in assay [1] and in assay [2] were 0.34 nM and 0.91 nM, respectively. Besides, the figures for the EC50 in assay [3] and in assay [4] were 3.2 nM and 0.0131 µM, respectively.

Take `CC1(O)CCN(C(=O)Cn2cc(NC(=O)c3cnn4cccnc34)c(-c3cc(Cl)ccc3OC(F)F)n2)CC1` [Example 280, N-[3-[5-chloro-2-(difluoromethoxy)phenyl]-1-[2-(4-hydroxy-4-methyl-1-piperidyl)-2-oxo-ethyl]pyrazol-4-yl]pyrazolo[1,5-a]pyrimidine-3-carboxamide]: the figures for the Ki in assay [1] and in assay [2] were 0.39 nM and 0.81 nM, respectively. Moreover, the EC50 in assay [3] was 4.3 nM; in assay [4] it was 0.0215 µM.

For `O=C(Nc1cn(CC(=O)N2CCOCC2)nc1-c1cc(Cl)ccc1OC(F)F)c1cnn2cccnc12` [Example 288, N-[3-[5-chloro-2-(difluoromethoxy)phenyl]-1-(2-morpholino-2-oxo-ethyl)pyrazol-4-yl]pyrazolo[1,5-a]pyrimidine-3-carboxamide], the Ki stood at 0.58 nM in assay [1] and 1.11 nM in assay [2]. Also, the EC50 in assay [3] was 2.8 nM; in assay [4], 0.0363 µM.

`O=C(Cn1cc(NC(=O)c2cnn3cccnc23)c(-c2cc(Cl)ccc2OC(F)F)n1)NCC1(CO)CC1` [Example 291, N-[3-[5-chloro-2-(difluoromethoxy)phenyl]-1-[2-[[1-(hydroxy-methyl)cyclopropyl]methylamino]-2-oxo-ethyl]pyrazol-4-yl]pyrazolo[1,5-a]pyrimidine-3-carboxamide]: the Ki in assay [1] was found to be 0.54 nM; in assay [2], 0.55 nM. Moreover, the values for the EC50 in assay [3] and in assay [4] were 3.6 nM and 0.0317 µM, respectively.

Turning to `O=C(Nc1cn(CC2(O)CCCC2)nc1-c1cc(Cl)ccc1OC(F)F)c1cnn2cccnc12` [Example 292, N-[3-[5-chloro-2-(difluoromethoxy)phenyl]-1-[(1-hydroxy-cyclopentyl)methyl]pyrazol-4-yl]pyrazolo[1,5-a]pyrimidine-3-carboxamide], the figures for the Ki in assay [1] and in assay [2] were 0.39 nM and 0.4 nM, respectively. In addition, the EC50 amounted to 1.4 nM in assay [3] and 0.021 µM in assay [4].

Take `CN(C(=O)Cn1cc(NC(=O)c2cnn3cccnc23)c(-c2cc(Cl)ccc2OC(F)F)n1)C1(CO)CC1` [Example 293]: the Ki in assay [1] was found to be 0.29 nM; in assay [2], 0.38 nM. Also, the EC50 in assay [3] amounted to 3 nM; in assay [4], 0.0081 µM.

Take `NCCn1cc(NC(=O)c2c(N)nn3cccnc23)c(-c2cc(Cl)ccc2OC(F)F)n1` [Example 295, 2-amino-N-[1-(2-aminoethyl)-3-[5-chloro-2-(difluoromethoxy)phenyl]pyrazol-4-yl]pyrazolo[1,5-a]pyrimidine-3-carboxamide]: the inhibition constant Ki in assay [1] turned out to be 0.49 nM; in assay [2], 0.21 nM. For the same molecule, the EC50 was 5.5 nM in assay [3] and 0.0345 µM in assay [4].

Take `CN[C@@H]1CCC[C@H](n2cc(NC(=O)c3c(N)nn4cccnc34)c(-c3cc(Cl)ccc3OC(F)F)n2)C1` [Example 296, 2-amino-N-[3-[5-chloro-2-(difluoromethoxy)phenyl]-1-[(1S,3R)-3-(methylamino)cyclohexyl]pyrazol-4-yl]pyrazolo[1,5-a]pyrimidine-3-carboxamide]: the Ki in assay [1] came to 0.26 nM; in assay [2], 0.21 nM. Besides, the figures for the EC50 in assay [3] and in assay [4] were 5.6 nM and 0.0283 µM, respectively.

As for `Nc1nn2cccnc2c1C(=O)Nc1cn([C@H]2C[C@@H](N)C2)nc1-c1cc(Cl)ccc1OC(F)F` [Example 297, 2-Amino-pyrazolo[1,5-a]pyrimidine-3-carboxylic acid [1-(3-amino-cyclobutyl)-3-(5-chloro-2-difluoromethoxy-phenyl)-1H-pyrazol-4-yl]-amide], the Ki in assay [1] turned out to be 0.32 nM; in assay [2], 0.07 nM. Moreover, the EC50 in assay [3] was 7.1 nM; in assay [4] it was 0.0308 µM.

`CN[C@H]1C[C@@H](n2cc(NC(=O)c3c(N)nn4cccnc34)c(-c3cc(Cl)ccc3OC(F)F)n2)C1` [Example 298, 2-amino-N-[3-[5-chloro-2-(difluoromethoxy)phenyl]-1-[3-(methylamino)cyclobutyl]pyrazol-4-yl]pyrazolo[1,5-a]pyrimidine-3-carboxamide]: the figures for the inhibitory constant (Ki) in assay [1] and in assay [2] were 0.52 nM and 0.18 nM, respectively. The values for the EC50 in assay [3] and in assay [4] were 4.4 nM and 0.0215 µM, respectively.
